According to PubChem BioAssay AID248 (DTP/NCI, 2004):
Toxic doses and inconclusive results are not listed. No stated cut-off is given here; in the data, active means T/C of 150% or more; inactive means T/C below 125%.

System: L1210 leukemia ip in BDF1 mice, survival T/C
Assay: NCI In Vivo Anticancer Drug Screen. Data for tumor model L1210 Leukemia (intraperitoneal) in B6D2F1 (BDF1) mice
Details: endpoint: mean survival time, higher = longer survival
In short: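 Tumor cells were implanted, animals were treated, and survival was followed. The result divides the treated measurement by the vehicle-control measurement.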

[1] = dose: 100.0 mg/kg/injection, schedule: Q01DX001 (ip), vehicle: Klucel (hydroxypropylcellulose) (HPC)
[2] = dose: 200.0 mg/kg/injection, schedule: Q01DX001 (ip), vehicle: Klucel (hydroxypropylcellulose) (HPC)
[3] = dose: 100.0 mg/kg/injection, schedule: Q04DX003 (ip), vehicle: Klucel (hydroxypropylcellulose) (HPC)
[4] = dose: 400.0 mg/kg/injection, schedule: Q04DX003 (ip), vehicle: Klucel (hydroxypropylcellulose) (HPC)
[5] = dose: 100.0 mg/kg/injection, schedule: Q04DX003 (ip), vehicle: other
[6] = dose: 200.0 mg/kg/injection, schedule: Q04DX003 (ip), vehicle: other
[7] = dose: 400.0 mg/kg/injection, schedule: Q04DX003 (ip), vehicle: other
[8] = dose: 100.0 mg/kg/injection, schedule: Q01DX009 (ip), vehicle: saline with Tween-80
[9] = dose: 200.0 mg/kg/injection, schedule: Q01DX009 (ip), vehicle: saline with Tween-80
[10] = dose: 100.0 mg/kg/injection, schedule: Q01DX001 (ip), vehicle: saline
[11] = dose: 200.0 mg/kg/injection, schedule: Q01DX001 (ip), vehicle: saline
[12] = dose: 400.0 mg/kg/injection, schedule: Q01DX001 (ip), vehicle: saline
[13] = dose: 12.5 mg/kg/injection, schedule: Q01DX009 (ip), vehicle: saline with Tween-80
[14] = dose: 25.0 mg/kg/injection, schedule: Q01DX009 (ip), vehicle: saline with Tween-80
[15] = dose: 50.0 mg/kg/injection, schedule: Q01DX009 (ip), vehicle: saline with Tween-80

Measured: T/C

CC1(C)OCC2OC3(C(=O)O)OC(C)(C)OC3C2O1 (stereo not given)
inactive: dose: 25.0 mg/kg/injection, schedule: Q01DX009 (ip), vehicle: water 105 % of control | dose: 50.0 mg/kg/injection, schedule: Q01DX009 (ip), vehicle: water 101 % of control | dose: 100.0 mg/kg/injection, schedule: Q01DX009 (ip), vehicle: water 96 % of control | dose: 200.0 mg/kg/injection, schedule: Q01DX009 (ip), vehicle: water 101 % of control | dose: 400.0 mg/kg/injection, schedule: Q01DX009 (ip), vehicle: water 95 % of control

CCCCCCCCCCCCCCCCOS(=O)(=O)O
inactive: dose: 37.5 mg/kg/injection, schedule: Q04DX003 (ip), vehicle: saline 103 % of control | dose: 75.0 mg/kg/injection, schedule: Q01DX001 (ip), vehicle: saline 106 % of control | dose: 75.0 mg/kg/injection, schedule: Q04DX003 (ip), vehicle: saline 97 % of control | dose: 150.0 mg/kg/injection, schedule: Q01DX001 (ip), vehicle: saline 90 % of control | dose: 150.0 mg/kg/injection, schedule: Q04DX003 (ip), vehicle: saline 96 % of control

O=C(O)C1CC(n2cnc3c(=O)[nH]cnc32)CN1 (stereo not given)
inactive: dose: 50.0 mg/kg/injection, schedule: Q04DX002 (ip), vehicle: saline with Tween-80 102 % of control | dose: 100.0 mg/kg/injection, schedule: Q04DX002 (ip), vehicle: saline with Tween-80 98 % of control

O=C1OC(=O)c2ccc(Sc3ccccn3)c3cccc1c23
inactive: dose: 100.0 mg/kg/injection, schedule: Q04DX003 (ip), vehicle: carboxymethylcellulose (CMC) 93 % of control | dose: 200.0 mg/kg/injection, schedule: Q04DX003 (ip), vehicle: carboxymethylcellulose (CMC) 88 % of control | dose: 400.0 mg/kg/injection, schedule: Q04DX003 (ip), vehicle: carboxymethylcellulose (CMC) 93 % of control

COc1ccccc1-n1c(O)c(N=Nc2ccc(Br)cc2)c(=O)n(-c2ccc(Br)cc2)c1=S
inactive: dose: 50.0 mg/kg/injection, schedule: Q01DX001 (ip), vehicle: Klucel (hydroxypropylcellulose) (HPC) 93 % of control | [1] 109 % of control | [2] 102 % of control

CC(=O)N(C(=O)c1ccccc1)c1ccc(NS(=O)(=O)c2ccc(C)cc2)cc1
inactive: [1] 91 % of control | [3] 94 % of control | [2] 100 % of control | dose: 400.0 mg/kg/injection, schedule: Q01DX001 (ip), vehicle: Klucel (hydroxypropylcellulose) (HPC) 100 % of control | [4] 90 % of control

CCCCCCCCCCC(=O)NC1CCC(CC2CCCCC2)CC1 (stereo not given)
inactive: [5] 101 % of control | [6] 103 % of control | [7] 101 % of control

COc1ccc(OC(=O)Nc2ccccc2C(F)(F)F)cc1
inactive: [8] 98 % of control | [9] 107 % of control | dose: 400.0 mg/kg/injection, schedule: Q01DX009 (ip), vehicle: saline with Tween-80 102 % of control

NOCc1cscn1
inactive: [10] 98 % of control | [11] 101 % of control | [12] 101 % of control

CCN=C(N)SCC
inactive: dose: 100.0 mg/kg/injection, schedule: Q04DX002 (ip), vehicle: saline 95 % of control | dose: 200.0 mg/kg/injection, schedule: Q04DX002 (ip), vehicle: saline 95 % of control

O=[N+]([O-])c1ccc(S(=O)(=O)Cl)c(Cl)c1
inactive: [10] 100 % of control | [11] 96 % of control | [12] 92 % of control

COC(=O)C1C2OC3C(OC(=O)C31)C2Br (stereo not given)
inactive: [3] 91 % of control | dose: 200.0 mg/kg/injection, schedule: Q04DX003 (ip), vehicle: Klucel (hydroxypropylcellulose) (HPC) 96 % of control | [4] 102 % of control

Nc1nc(N)nc(-c2ccccn2)n1
inactive: [13] 105 % of control | [14] 92 % of control | [15] 105 % of control

CCCCCOc1ccc(C(=O)/C(Br)=C/C(=O)O)cc1
inactive: [13] 98 % of control | [14] 96 % of control | [15] 101 % of control

Cc1cc(N=Nc2ccccc2C)ccc1N
inactive: dose: 3.0 mg/kg/injection, schedule: Q01DX009 (ip), vehicle: DMSO 97 % of control | dose: 6.0 mg/kg/injection, schedule: Q01DX009 (ip), vehicle: DMSO 90 % of control | dose: 12.0 mg/kg/injection, schedule: Q01DX009 (ip), vehicle: DMSO 98 % of control | dose: 12.5 mg/kg/injection, schedule: Q01DX009 (ip), vehicle: DMSO 95 % of control | dose: 12.5 mg/kg/injection, schedule: Q04DX003 (ip), vehicle: DMSO 100 % of control | dose: 25.0 mg/kg/injection, schedule: Q04DX003 (ip), vehicle: DMSO 98 % of control | dose: 50.0 mg/kg/injection, schedule: Q04DX003 (ip), vehicle: DMSO 96 % of control

S=c1[nH]c2ccccc2o1
inactive: [8] 93 % of control | [5] 101 % of control | [9] 100 % of control | [6] 93 % of control | [7] 96 % of control

CCOC(=O)NP(=O)(NC(=O)OCC)NC(=O)OCC
inactive: dose: 50.0 mg/kg/injection, schedule: Q01DX001 (ip), vehicle: saline 106 % of control | [10] 104 % of control | [11] 93 % of control | [12] 106 % of control

CCN(CC)c1ccc(NC(C)=O)cc1
inactive: dose: 12.5 mg/kg/injection, schedule: Q01DX009 (ip), vehicle: Klucel (hydroxypropylcellulose) (HPC) 106 % of control | dose: 12.5 mg/kg/injection, schedule: Q04DX003 (ip), vehicle: Klucel (hydroxypropylcellulose) (HPC) 92 % of control | dose: 25.0 mg/kg/injection, schedule: Q01DX009 (ip), vehicle: Klucel (hydroxypropylcellulose) (HPC) 97 % of control | dose: 25.0 mg/kg/injection, schedule: Q04DX003 (ip), vehicle: Klucel (hydroxypropylcellulose) (HPC) 91 % of control | dose: 50.0 mg/kg/injection, schedule: Q01DX009 (ip), vehicle: Klucel (hydroxypropylcellulose) (HPC) 95 % of control

COc1ccccc1/C=N\NC(=O)c1ccco1
inactive: dose: 100.0 mg/kg/injection, schedule: Q01DX001 (ip), vehicle: carboxymethylcellulose (CMC) 95 % of control | dose: 200.0 mg/kg/injection, schedule: Q01DX001 (ip), vehicle: carboxymethylcellulose (CMC) 93 % of control | dose: 400.0 mg/kg/injection, schedule: Q01DX001 (ip), vehicle: carboxymethylcellulose (CMC) 95 % of control

COc1cc(/C=C2\SC(=O)NC2=O)ccc1O
inactive: [13] 106 % of control | [14] 101 % of control | dose: 150.0 mg/kg/injection, schedule: Q01DX009 (ip), vehicle: saline with Tween-80 101 % of control

Cc1cccc(Nc2cc(=O)[nH]c(=O)[nH]2)c1C
inactive: dose: 150.0 mg/kg/injection, schedule: Q01DX001 (ip), vehicle: saline with Tween-80 90 % of control | dose: 300.0 mg/kg/injection, schedule: Q01DX001 (ip), vehicle: saline with Tween-80 95 % of control

O=[N+]([O-])c1ccc(Cl)cc1/C=N/Nc1c2ccccc2nc2ccccc12
inactive: [10] 92 % of control

CCCCCC/C=C/[N+]([O-])=NC(COC)C(C)O (stereo not given)
inactive: dose: 5.3 mg/kg/injection, schedule: Q01DX Z (ip), vehicle: carboxymethylcellulose (CMC) 103 % of control | dose: 8.0 mg/kg/injection, schedule: Q01DX Z (ip), vehicle: carboxymethylcellulose (CMC) 106 % of control | dose: 12.0 mg/kg/injection, schedule: Q01DX Z (ip), vehicle: carboxymethylcellulose (CMC) 101 % of control | dose: 18.0 mg/kg/injection, schedule: Q01DX Z (ip), vehicle: carboxymethylcellulose (CMC) 95 % of control
